# Activity calls are given as the source filed them. No cut-off for these calls is given here.
# What was measured:
# [1] = molecular target: Phosphatidylinositol 4,5-bisphosphate 3-kinase catalytic subunit alpha isoform (Homo sapiens) (UniProt P42336); assay: Inhibition on PI3Kalpha (unknown origin) at 1 nM by kinase-glo plus luminescent assay relative to control
# HT-29 = assay: Antiproliferative activity against human HT-29 cells assessed as inhibition of cell proliferation at 10 uM incubated for 72 hrs by CCK8 assay relative to control; type: functional; parameters: scale not given: the % may be the effect or the level left
# HCT-116 = assay: Antiproliferative activity against human HCT-116 cells assessed as inhibition of cell proliferation at 10 uM incubated for 72 hrs by CCK8 assay relative to control; type: functional; parameters: scale not given: the % may be the effect or the level left
# HeLa = assay: Antiproliferative activity against human HeLa cells assessed as inhibition of cell proliferation at 10 uM incubated for 72 hrs by CCK8 assay relative to control; type: functional; parameters: scale not given: the % may be the effect or the level left
# [2] = molecular target: T1, von Hippel-Lindau disease tumor suppressor/Phosphatidylinositol 4,5-bisphosphate 3-kinase catalytic subunit alpha isoform (Homo sapiens) (UniProt P42336+P40337); assay: PROTAC activity at VHL/PI3K in human HeLa cells assessed as induction of PI3Kalpha degradation at 3 uM incubated for 24 hrs by Western blotting analysis; type: cell-based
# [3] = molecular target: T1, von Hippel-Lindau disease tumor suppressor/Phosphatidylinositol 4,5-bisphosphate 3-kinase catalytic subunit alpha isoform (Homo sapiens); assay: PROTAC activity at VHL/PI3K in human HeLa cells assessed as induction of PI3Kalpha degradation at 10 uM incubated for 24 hrs by Western blotting analysis; type: cell-based
# [4] = molecular target: T1, von Hippel-Lindau disease tumor suppressor/Phosphatidylinositol 4,5-bisphosphate 3-kinase catalytic subunit alpha isoform (Homo sapiens); assay: PROTAC activity at VHL/PI3K in human HeLa cells assessed as reduction in AKT phosphorylation at 10 uM incubated for 24 hrs by Western blotting analysis; type: cell-based
# [5] = molecular target: T1, von Hippel-Lindau disease tumor suppressor/Phosphatidylinositol 4,5-bisphosphate 3-kinase catalytic subunit alpha isoform (Homo sapiens); assay: PROTAC activity at VHL/PI3K in human HeLa cells assessed as induction of PI3Kalpha degradation at 1 to 10 uM incubated for 24 hrs by Western blotting analysis; type: cell-based; details: dose 1-10 µM
# [6] = molecular target: T1, von Hippel-Lindau disease tumor suppressor/Phosphatidylinositol 4,5-bisphosphate 3-kinase catalytic subunit alpha isoform (Homo sapiens); assay: PROTAC activity at VHL/PI3K in human HeLa cells assessed as redcution in AKT phosphorylation at 3 uM incubated for 24 hrs by Western blotting analysis; type: cell-based
# [7] = molecular target: T1, von Hippel-Lindau disease tumor suppressor/Phosphatidylinositol 4,5-bisphosphate 3-kinase catalytic subunit alpha isoform (Homo sapiens); assay: PROTAC activity at VHL/PI3K in human HeLa cells assessed as induction of PI3Kalpha degradation by Western blotting analysis; type: cell-based; details: time 2-12 hrs, TDE = time-dependent effect
# [8] = molecular target: T1, von Hippel-Lindau disease tumor suppressor/Phosphatidylinositol 4,5-bisphosphate 3-kinase catalytic subunit alpha isoform (Homo sapiens); assay: PROTAC activity at VHL/PI3K in human HeLa cells assessed as inhibition of AKT phosphorylation by Western blotting analysis; type: cell-based; details: time 2-12 hrs, TDE = time-dependent effect
# Sequence of Phosphatidylinositol 4,5-bisphosphate 3-kinase catalytic subunit alpha isoform (Homo sapiens) (P42336 whole entry, canonical isoform): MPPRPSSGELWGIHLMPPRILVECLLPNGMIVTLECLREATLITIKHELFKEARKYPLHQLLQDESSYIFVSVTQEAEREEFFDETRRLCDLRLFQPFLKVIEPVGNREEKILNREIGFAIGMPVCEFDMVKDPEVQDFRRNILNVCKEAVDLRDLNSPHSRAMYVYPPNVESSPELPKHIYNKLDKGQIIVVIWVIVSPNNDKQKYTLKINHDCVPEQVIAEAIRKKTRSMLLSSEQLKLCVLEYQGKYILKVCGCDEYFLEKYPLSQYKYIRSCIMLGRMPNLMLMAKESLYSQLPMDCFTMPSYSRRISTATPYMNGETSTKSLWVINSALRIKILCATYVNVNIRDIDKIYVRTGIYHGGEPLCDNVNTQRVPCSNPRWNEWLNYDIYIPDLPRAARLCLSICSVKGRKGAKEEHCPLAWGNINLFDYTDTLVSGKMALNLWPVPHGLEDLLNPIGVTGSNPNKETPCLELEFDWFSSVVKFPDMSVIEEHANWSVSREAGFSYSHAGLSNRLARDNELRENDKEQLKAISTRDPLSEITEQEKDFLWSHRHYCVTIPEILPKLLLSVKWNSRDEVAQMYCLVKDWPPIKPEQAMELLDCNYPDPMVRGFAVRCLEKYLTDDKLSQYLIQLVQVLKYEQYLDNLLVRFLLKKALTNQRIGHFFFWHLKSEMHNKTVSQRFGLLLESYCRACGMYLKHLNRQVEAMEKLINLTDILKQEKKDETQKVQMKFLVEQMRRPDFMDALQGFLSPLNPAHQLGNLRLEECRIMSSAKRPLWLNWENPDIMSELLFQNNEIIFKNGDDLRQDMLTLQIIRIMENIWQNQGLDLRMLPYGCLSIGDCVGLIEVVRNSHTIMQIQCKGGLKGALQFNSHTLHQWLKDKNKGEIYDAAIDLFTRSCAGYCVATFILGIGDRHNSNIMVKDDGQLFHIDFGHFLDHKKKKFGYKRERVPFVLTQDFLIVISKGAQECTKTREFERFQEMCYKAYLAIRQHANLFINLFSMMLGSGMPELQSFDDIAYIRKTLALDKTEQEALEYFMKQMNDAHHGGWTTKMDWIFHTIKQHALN
# T1 sequence (P40337 whole entry, looked up, canonical isoform): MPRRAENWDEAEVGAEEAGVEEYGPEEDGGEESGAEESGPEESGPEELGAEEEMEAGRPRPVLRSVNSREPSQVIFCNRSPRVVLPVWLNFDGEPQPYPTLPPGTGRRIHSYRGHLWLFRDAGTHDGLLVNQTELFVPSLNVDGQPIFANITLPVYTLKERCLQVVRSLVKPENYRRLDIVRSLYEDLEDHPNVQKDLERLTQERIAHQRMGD
# T1 sequence (P42336 whole entry, looked up, canonical isoform): as the sequence (P42336 whole entry, canonical isoform) above
Structure (SMILES),inhibition [1] [%],Activity [2],Activity [3],Activity [4],Activity [5],Activity [6],Activity [7],Activity [8],Activity (HT-29) [%],Activity (HCT-116) [%],Activity (HeLa) [%]
COC(=O)c1ccccc1-c1nnc(-c2cnc3ccc(-c4cnc(OC)c(NS(=O)(=O)c5ccc(F)cc5F)c4)cn23)o1,70.2,–,–,–,–,–,–,–,80.36,91.65,99.37
COc1ncc(-c2ccc3ncc(-c4nnc(-c5ccccc5C(=O)NCCOCCOCC(=O)N[C@H](C(=O)N5C[C@@H](O)C[C@@H]5C(=O)NCc5ccc(-c6scnc6C)cc5)C(C)(C)C)o4)n3c2)cc1NS(=O)(=O)c1ccc(F)cc1F,31.7,–,–,–,–,–,–,–,57.14,33.84,89.21
COc1ncc(-c2ccc3ncc(-c4nnc(-c5ccccc5C(=O)O)o4)n3c2)cc1NS(=O)(=O)c1ccc(F)cc1F,67.1,–,–,–,–,–,–,–,–,8.23,1.62
COc1ncc(-c2ccc3ncc(-c4nnc(-c5ccccc5C(=O)N[C@H](C(=O)N5C[C@@H](O)C[C@@H]5C(=O)NCc5ccc(-c6scnc6C)cc5)C(C)(C)C)o4)n3c2)cc1NS(=O)(=O)c1ccc(F)cc1F,33.6,–,–,–,–,–,–,–,–,95.86,30.38
COc1ncc(-c2ccc3ncc(-c4nnc(-c5ccccc5C(=O)NCCOCCOCCOCCOCCOCC(=O)N[C@H](C(=O)N5C[C@@H](O)C[C@@H]5C(=O)NCc5ccc(-c6scnc6C)cc5)C(C)(C)C)o4)n3c2)cc1NS(=O)(=O)c1ccc(F)cc1F,51.9,–,–,–,–,–,–,–,61.35,37.32,85.58
"COc1ncc(-c2ccc3ncc(-c4nnc(-c5ccccc5C(=O)NCCOCCOCCOCCOCC(=O)N[C@H](C(=O)N5CC(O)CC5C(=O)NCc5ccc(-c6scnc6C)cc5)C(C)(C)C)o4)n3c2)cc1NS(=O)(=O)c1ccc(F)cc1F (single isomer, unassigned)",57.5,–,–,–,–,–,–,–,50.35,57.87,89.6
COc1ncc(-c2ccc3ncc(-c4nnc(-c5ccccc5C(=O)NCCOCCOCCOCC(=O)N[C@H](C(=O)N5C[C@@H](O)C[C@@H]5C(=O)NCc5ccc(-c6scnc6C)cc5)C(C)(C)C)o4)n3c2)cc1NS(=O)(=O)c1ccc(F)cc1F,59.1,–,–,–,–,–,–,–,22.69,48.88,90.1
COc1ncc(-c2ccc3ncc(-c4nnc(-c5ccccc5C(=O)NCCOCCOCCOCCOCCOCCOCC(=O)N[C@H](C(=O)N5C[C@@H](O)C[C@@H]5C(=O)NCc5ccc(-c6scnc6C)cc5)C(C)(C)C)o4)n3c2)cc1NS(=O)(=O)c1ccc(F)cc1F,48.6,–,–,–,–,–,–,–,–,56.24,91.27

# Second part, led by results:
inhibition [1] [%],Activity [2],Activity [3],Activity [4],Activity [5],Activity [6],Activity [7],Activity [8],Structure (SMILES),Activity (HT-29) [%],Activity (HCT-116) [%],Activity (HeLa) [%]
65.2,–,–,–,–,–,–,–,"COc1ncc(-c2ccc3ncc(-c4nnc(-c5ccccc5C(=O)NCCCCCCCC(=O)N[C@H](C(=O)N5CC(O)CC5C(=O)NCc5ccc(-c6scnc6C)cc5)C(C)(C)C)o4)n3c2)cc1NS(=O)(=O)c1ccc(F)cc1F (single isomer, unassigned)",74.22,70.03,87.89
22.2,–,–,–,–,–,–,–,COc1ncc(-c2ccc3ncc(-c4nnc(-c5ccccc5C(=O)NCCCCC(=O)N[C@H](C(=O)N5C[C@@H](O)C[C@@H]5C(=O)NCc5ccc(-c6scnc6C)cc5)C(C)(C)C)o4)n3c2)cc1NS(=O)(=O)c1ccc(F)cc1F,82.88,23.94,32.2
60,Active,Active,Active,Active,Active,–,–,COc1ncc(-c2ccc3ncc(-c4nnc(-c5ccccc5C(=O)NCCCCCC(=O)N[C@H](C(=O)N5C[C@@H](O)C[C@@H]5C(=O)NCc5ccc(-c6scnc6C)cc5)C(C)(C)C)o4)n3c2)cc1NS(=O)(=O)c1ccc(F)cc1F,89.26,41.16,94.03
40.1,–,–,–,–,–,–,–,COc1ncc(-c2ccc3ncc(-c4nnc(-c5ccccc5C(=O)NCCOCC(=O)N[C@H](C(=O)N5C[C@@H](O)C[C@@H]5C(=O)NCc5ccc(-c6scnc6C)cc5)C(C)(C)C)o4)n3c2)cc1NS(=O)(=O)c1ccc(F)cc1F,51.09,25.32,23.41
49.8,Active,Active,Active,Active,Active,Tde,Tde,COc1ncc(-c2ccc3ncc(-c4nnc(-c5ccccc5C(=O)NCCCCCCC(=O)N[C@H](C(=O)N5C[C@@H](O)C[C@@H]5C(=O)NCc5ccc(-c6scnc6C)cc5)C(C)(C)C)o4)n3c2)cc1NS(=O)(=O)c1ccc(F)cc1F,72.18,50.3,96.33

# — ChEMBL document CHEMBL5120803, “Design, synthesis and activity study of a novel PI3K degradation by hijacking VHL E3 ubiquitin ligase” (2022)
